# Measured values from PubChem BioAssay (NCI).
# “And” between values parts separate entries of the source, which are not always exact repeats. Equal entries are not always repeated.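 Growth conditions: 96-well plates. Treatment: test compound, 48 hours, 5 concentrations. Analysis: linear interpolation between bracketing concentrations; unreached endpoints set to highest concentration. GI50 = concentration required for 50% inhibition of growth. TGI: total growth inhibition.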 Where a SMILES comes first, the peptide text is derived from it. The star is where a group is joined. Boc = CC(C)(C)OC(=O)*
# Test system: RXF 393 renal
# Test: growth of human tumour cells (NCI), 48 h
SMILES,GI50,TGI
COc1ccc2c(c1)c[n+](C)c1c3cc(OC)c(OC)cc3ccc21,1.5 µM and 5.8 µM,2.98 µM and 13.6 µM
CCOC(=O)/C=C/c1ccc(C#Cc2ccccc2)cc1,49.2 µM,> 100 µM
O=C1c2cc3c(cc2-c2c1c1cc(Cl)c(Cl)cc1c(=O)n2C[C@H](O)CO)OCO3,< 0.01 µM,0.0378 µM
COc1ccc(/C(=C\C=C(C#N)C#N)Sc2nc3ccccc3s2)cc1,1.47 µM,2.97 µM
CC(C)OC(=O)[C@H](C)NP(=O)(OC[C@H]1O[C@@H](n2ccc(=O)[nH]c2=O)[C@](C)(F)[C@@H]1O)Oc1ccccc1 (some centres undefined),> 100 µM,> 100 µM
O=C(O)c1ccc(C(=O)O)c2c(C(=O)O)ccc(C(=O)O)c12,,> 100 µM
S=c1[nH]c2c(Cl)c(Cl)c(Cl)c(Cl)c2[nH]1,,35.4 µM
Cc1cc(N(CCCNc2ccnc3cc(Cl)ccc23)Cc2ccc3c(c2)OCO3)nc(N2CCOCC2)n1,0.202 µM,0.53 µM
O=C(/C=C/C=C/c1ccccc1)c1ccccc1,,37.3 µM
Oc1ccc2ccccc2c1N=Nc1ccc(Br)cc1,,> 100 µM
Cn1cc(-c2csc(-c3c[nH]c4ccc(Br)cc34)n2)c2cnccc21,1.47 µM,2.96 µM

# Test system: MDA-MB-231 breast
# Test: growth of human tumour cells (NCI), 48 h
SMILES,GI50,TGI
Cn1c(Nc2ccc(C(F)(F)F)cc2)nc2cc(Oc3ccnc(-c4ncc(C(F)(F)F)[nH]4)c3)ccc21,0.803 µM,12.2 µM
COc1ccc(-c2nsc3c2NC(=O)CC3c2cccc(OC)c2)cc1 (centres undefined),1.17 µM,> 100 µM
C[C@@]12CCC[C@@](C)(C(=O)O)C1CC[C@]13CC(=O)[C@](CO)(C1)[C@@H](O)CC32 (some centres undefined),> 100 µM,> 100 µM
O=[N+]([O-])c1ccc(CI)cc1,1.23 µM,4.08 µM
CN(C)C/C=C/C(=O)Nc1cc2c(Nc3ccc(F)c(Cl)c3)ncnc2cc1O[C@H]1CCOC1,1.2 µM and 0.806 µM,7.06 µM and 4.75 µM
COc1cc(/C=C/C(=O)c2cccc(-n3cc(-c4ccc(Cl)cc4)[nH]c3=O)c2)ccc1O,3.46 µM,> 39.1 µM
CCN(Cc1ccc(F)cc1)c1ccc(CO)c(Br)c1,14.2 µM,36.5 µM
Cc1ccc2c(C3C(C#N)=C(N)Oc4cc5ccccc5cc43)cc(=O)oc2c1 (centres undefined),8.2 µM,> 100 µM
COC(=O)c1cc2c(s1)-c1nccc3c1c(nc1ccccc13)C2=O,28.6 µM,> 100 µM
COc1ccc(-c2cc(/C=C/C(=O)c3ccc(OC)c(OC)c3)[nH]n2)cc1,2 µM,6.63 µM
Oc1ccc(Nc2c3ccccc3nc3occ(Cl)c23)cc1,2.43 µM,7.39 µM
O=C(Nc1cc(C(F)(F)F)ccc1Cl)c1cccc(NC2=C(Cl)C(=O)N(Cc3ccccc3)C2=O)c1,32.7 µM,> 100 µM
CC1(Br)Cc2ccccc2C1=O (centres undefined),,22.9 µM
COc1ccc2c(c1)c[n+](C)c1c3cc(OC)c(OC)cc3ccc21,,2.83 µM and 3.07 µM
CCOC(=O)/C=C/c1ccc(C#Cc2ccccc2)cc1,> 100 µM,> 100 µM
C[C@H]1CN[C@@H]2[C@@H](C)[C@H]3[C@@H](C[C@H]4[C@@H]5CC[C@H]6C[C@@H](N)CC[C@]6(C)[C@H]5CC[C@]34C)O[C@@]2(O)C1,,4.3 µM
O=C1c2cc3c(cc2-c2c1c1cc(Cl)c(Cl)cc1c(=O)n2C[C@H](O)CO)OCO3,0.0796 µM,1.66 µM
COc1ccc(/C(=C\C=C(C#N)C#N)Sc2nc3ccccc3s2)cc1,6.71 µM,14.4 µM
CC(C)OC(=O)[C@H](C)NP(=O)(OC[C@H]1O[C@@H](n2ccc(=O)[nH]c2=O)[C@](C)(F)[C@@H]1O)Oc1ccccc1 (some centres undefined),> 100 µM,> 100 µM
O=C(O)c1ccc(C(=O)O)c2c(C(=O)O)ccc(C(=O)O)c12,,> 100 µM
S=c1[nH]c2c(Cl)c(Cl)c(Cl)c(Cl)c2[nH]1,,47.9 µM
Cc1cc(N(CCCNc2ccnc3cc(Cl)ccc23)Cc2ccc3c(c2)OCO3)nc(N2CCOCC2)n1,0.303 µM,1.37 µM
O=C(/C=C/C=C/c1ccccc1)c1ccccc1,,37.8 µM
O=C(Nc1ccc(Cl)c(C(F)(F)F)c1)c1ccc(NC2=C(Cl)C(=O)N(Cc3ccccc3)C2=O)cc1,17.1 µM,31 µM
COC(=O)C(C)NC(=O)C(CCSC)NC(=O)C(Cc1ccccc1)NC(=O)OC(C)(C)C (stereo not drawn) (Boc-Phe-Met-Ala-OMe; configuration not given here),33.2 µg/mL,> 100 µM
Cc1nc2cc(Nc3nc(Nc4ccc(F)cc4)nc(-c4cccs4)n3)ccc2n1Cc1ccccc1,3.48 µM,16.2 µM
Oc1ccc2ccccc2c1N=Nc1ccc(Br)cc1,,> 100 µM
Cn1cc(-c2csc(-c3c[nH]c4ccc(Br)cc34)n2)c2cnccc21,2.34 µM,5.55 µM

# Test system: BT-549 breast
# Test: growth of human tumour cells (NCI), 48 h
SMILES,GI50,TGI
Cn1c(Nc2ccc(C(F)(F)F)cc2)nc2cc(Oc3ccnc(-c4ncc(C(F)(F)F)[nH]4)c3)ccc21,0.155 µM,12.2 µM
COc1ccc(-c2nsc3c2NC(=O)CC3c2cccc(OC)c2)cc1 (centres undefined),2.87 µM,> 100 µM
C[C@@]12CCC[C@@](C)(C(=O)O)C1CC[C@]13CC(=O)[C@](CO)(C1)[C@@H](O)CC32 (some centres undefined),> 100 µM,> 100 µM
O=[N+]([O-])c1ccc(CI)cc1,3.54 µM,10.8 µM
CN(C)C/C=C/C(=O)Nc1cc2c(Nc3ccc(F)c(Cl)c3)ncnc2cc1O[C@H]1CCOC1,2.28 µM and 2.18 µM,9.6 µM and > 10 µM
COc1cc(/C=C/C(=O)c2cccc(-n3cc(-c4ccc(Cl)cc4)[nH]c3=O)c2)ccc1O,2.89 µM,10.9 µM
CCN(Cc1ccc(F)cc1)c1ccc(CO)c(Br)c1,12.2 µM,29 µM
Cc1ccc2c(C3C(C#N)=C(N)Oc4cc5ccccc5cc43)cc(=O)oc2c1 (centres undefined),3.67 µM,64.3 µM
COC(=O)c1cc2c(s1)-c1nccc3c1c(nc1ccccc13)C2=O,> 100 µM,> 100 µM
COc1ccc(-c2cc(/C=C/C(=O)c3ccc(OC)c(OC)c3)[nH]n2)cc1,1.68 µM,3.53 µM
Oc1ccc(Nc2c3ccccc3nc3occ(Cl)c23)cc1,19.4 µM,> 100 µM
O=C(Nc1cc(C(F)(F)F)ccc1Cl)c1cccc(NC2=C(Cl)C(=O)N(Cc3ccccc3)C2=O)c1,15.6 µM,> 100 µM
CC1(Br)Cc2ccccc2C1=O (centres undefined),,5.03 µM
COc1ccc2c(c1)c[n+](C)c1c3cc(OC)c(OC)cc3ccc21,2.4 µM and 10.2 µM,9.63 µM and 26.2 µM
C[C@H]1CN[C@@H]2[C@@H](C)[C@H]3[C@@H](C[C@H]4[C@@H]5CC[C@H]6C[C@@H](N)CC[C@]6(C)[C@H]5CC[C@]34C)O[C@@]2(O)C1,,7.24 µM
O=C1c2cc3c(cc2-c2c1c1cc(Cl)c(Cl)cc1c(=O)n2C[C@H](O)CO)OCO3,< 0.01 µM,0.455 µM
COc1ccc(/C(=C\C=C(C#N)C#N)Sc2nc3ccccc3s2)cc1,6.51 µM,17.5 µM
CC(C)OC(=O)[C@H](C)NP(=O)(OC[C@H]1O[C@@H](n2ccc(=O)[nH]c2=O)[C@](C)(F)[C@@H]1O)Oc1ccccc1 (some centres undefined),> 100 µM,> 100 µM
S=c1[nH]c2c(Cl)c(Cl)c(Cl)c(Cl)c2[nH]1,,52.4 µM
Cc1cc(N(CCCNc2ccnc3cc(Cl)ccc23)Cc2ccc3c(c2)OCO3)nc(N2CCOCC2)n1,0.334 µM,23.5 µM
O=C(/C=C/C=C/c1ccccc1)c1ccccc1,,43.5 µM
O=C(Nc1ccc(Cl)c(C(F)(F)F)c1)c1ccc(NC2=C(Cl)C(=O)N(Cc3ccccc3)C2=O)cc1,2.28 µM,5.78 µM
COC(=O)C(C)NC(=O)C(CCSC)NC(=O)C(Cc1ccccc1)NC(=O)OC(C)(C)C (stereo not drawn) (Boc-Phe-Met-Ala-OMe; configuration not given here),18.3 µg/mL,> 100 µM
Cc1nc2cc(Nc3nc(Nc4ccc(F)cc4)nc(-c4cccs4)n3)ccc2n1Cc1ccccc1,15.8 µM,40.7 µM
Oc1ccc2ccccc2c1N=Nc1ccc(Br)cc1,,> 100 µM
Cn1cc(-c2csc(-c3c[nH]c4ccc(Br)cc34)n2)c2cnccc21,26.3 µM,> 100 µM
